Consider 13 compounds from US20220281876A1, “DEGRADATION OF BRUTON'S TYROSINE KINASE (BTK) BY CONJUGATION OF BTK INHIBITORS WITH E3 LIGASE LIGAND AND METHODS OF USE” (BEIGENE, LTD., priority 2019, published 2022).

The term DC50 denotes the concentration giving 50% degradation. High values mean a less potent degrader, low ones a more potent degrader.

Each structure is given as a SMILES string.

The assay concerns the target T1, BTK (Homo sapiens, UniProt Q06187).
T1 construct: endogenous in cells; host or cells: Ramos cells
As to the kind of experiment: BTK cell degradation in Ramos cells (total BTK ELISA). It is filed as cell-based. To be noted: 16 h incubation, FastScan total BTK ELISA. The procedure: Ramos cells are treated with compounds diluted in 0.1% DMSO, dilution is done according to the following protocol: (1) make 1000x stock solution in DMSO from 10 mM by 5-fold dilution, total 7 doses were included; (2) make 10x solution in cell culture medium by transferring 1 ul 1000x stock solution into 99 ul medium; (3) 11 ul of 10× solution is added to cells and incubate for 16 h.
Cells in 96 well plate are harvested by centrifugation (1200 rpm), and wash once with ice-cold PBS. Then, 100 ul 1×cell extraction buffer is added in each well. The cells are placed on a shaker for 20 min at 4° C.; 5 ul lysate is transferred to 45 ul of 1×cell extraction buffer in ELISA plate, and 50 ul of the antibody cocktail is added in each well; seal the plate and incubate 1 hour at room temperature on a plate shaker; medium is discarded from the plate, tap the plated on a paper towel, wash 3×200 ul ELISA wash buffer; add 100 ul of TMB to each well and incubate the plate in the dark for 15 min at room temperature on a shaker; add 100 ul of STOP solution to each well; read absorbance at 450 nm. The BTK ELISA assay was performed using FastScan total BTK ELISA kit (Cell Signaling Cat #36609).

T1 sequence (Q06187 whole entry): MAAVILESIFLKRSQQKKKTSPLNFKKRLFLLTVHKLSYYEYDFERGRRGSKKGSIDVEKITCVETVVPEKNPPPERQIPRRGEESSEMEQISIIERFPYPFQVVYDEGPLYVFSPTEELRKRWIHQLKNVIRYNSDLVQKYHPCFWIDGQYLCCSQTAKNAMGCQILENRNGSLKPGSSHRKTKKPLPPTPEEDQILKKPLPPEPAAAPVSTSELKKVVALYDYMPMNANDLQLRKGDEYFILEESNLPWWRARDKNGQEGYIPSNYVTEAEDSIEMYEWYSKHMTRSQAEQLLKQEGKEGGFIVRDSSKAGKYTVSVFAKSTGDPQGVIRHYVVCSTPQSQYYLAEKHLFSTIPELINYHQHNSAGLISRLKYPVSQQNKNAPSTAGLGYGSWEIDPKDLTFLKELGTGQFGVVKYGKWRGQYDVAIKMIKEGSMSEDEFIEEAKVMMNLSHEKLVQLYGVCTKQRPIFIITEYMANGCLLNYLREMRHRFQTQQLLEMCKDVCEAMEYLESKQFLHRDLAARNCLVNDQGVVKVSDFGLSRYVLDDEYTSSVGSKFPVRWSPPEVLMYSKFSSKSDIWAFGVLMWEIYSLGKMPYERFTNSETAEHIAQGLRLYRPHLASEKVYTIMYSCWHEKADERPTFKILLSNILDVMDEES

`NC(=O)c1c(-c2ccc(Oc3ccccc3)cc2)nn2c1NCC[C@H]2C1CCN(C(=O)c2cn(CCOCCOCCOCCOCCOCCNc3ccc4c(c3)C(=O)N(C3CCC(=O)NC3=O)C4=O)nn2)CC1` (stereo partly drawn) [Example 14, (7S)-7-(1-(1-(17-((2-(2,6-dioxopiperidin-3-yl)-1,3-dioxoisoindolin-5-yl)amino)-3,6,9, 12, 15-pentaoxaheptadecyl)-1H-1,2,3-triazole-4-carbonyl)piperidin-4-yl)-2-(4-phenoxyphenyl)-4,5,6,7-tetrahydropyrazolo[1,5-a]pyrimidine-3-carboxamide] showed a half-maximal degradation concentration (DC50) of 78 nM.
`NC(=O)c1c(-c2ccc(Oc3ccccc3)cc2)nn2c1NCC[C@H]2C1CCN(C(=O)c2cn(CCOCCOCCOCCOCCOCCNc3cccc4c3C(=O)N(C3CCC(=O)NC3=O)C4=O)nn2)CC1` (stereo partly drawn) [Example 15, (7S)-7-(1-(1-(17-((2-(2,6-dioxopiperidin-3-yl)-1,3-dioxoisoindolin-4-yl)amino)-3,6,9, 12, 15-pentaoxaheptadecyl)-1H-1,2,3-triazole-4-carbonyl)piperidin-4-yl)-2-(4-phenoxyphenyl)-4,5,6,7-tetrahydropyrazolo[1,5-a]pyrimidine-3-carboxamide] yielded a 50% degradation concentration (DC50) of 78 nM.
The result for `NC(=O)c1c(-c2ccc(Oc3ccccc3)cc2)nn2c1NCC[C@H]2C1CCN(C(=O)c2cn(CCOCCOCCOCCOCCOCCOCCNc3cccc4c3C(=O)N(C3CCC(=O)NC3=O)C4=O)nn2)CC1` (stereo partly drawn) [Example 16, (7S)-7-(1-(1-(20-((2-(2,6-dioxopiperidin-3-yl)-1,3-dioxoisoindolin-4-yl)amino)-3,6,9, 12, 15, 18-hexaoxaicosyl)-1H-1,2,3-triazole-4-carbonyl)piperidin-4-yl)-2-(4-phenoxyphenyl)-4,5,6,7-tetrahydropyrazolo[1,5-a]pyrimidine-3-carboxamide] reads 107 nM; that for `NC(=O)c1c(-c2ccc(Oc3ccccc3)cc2)nn2c1NCC[C@H]2C1CCN(C(=O)c2cn(CCOCCOCCOCCOCCOCCOCCOCCNc3cccc4c3C(=O)N(C3CCC(=O)NC3=O)C4=O)nn2)CC1` (stereo partly drawn) [Example 17, (7S)-7-(1-(1-(23-((2-(2,6-dioxopiperidin-3-yl)-1,3-dioxoisoindolin-4-yl)amino)-3,6,9, 12, 15, 18, 21-heptaoxatricosyl)-1H-1,2,3-triazole-4-carbonyl)piperidin-4-yl)-2-(4-phenoxyphenyl)-4,5,6,7-tetrahydropyrazolo[1,5-a]pyrimidine-3-carboxamide], above 10000 nM.
With `NC(=O)c1c(-c2ccc(Oc3ccccc3)cc2)nn2c1NCC[C@H]2C1CCN(C(=O)CCCc2cn(CCOCCNc3cccc4c3C(=O)N(C3CCC(=O)NC3=O)C4=O)nn2)CC1` (stereo partly drawn) [Example 18, (7S)-7-(1-(4-(1-(2-(2-((2-(2,6-dioxopiperidin-3-yl)-1,3-dioxoisoindolin-4-yl)amino)ethoxy)ethyl)-1H-1,2,3-triazol-4-yl)butanoyl)piperidin-4-yl)-2-(4-phenoxyphenyl)-4,5,6,7-tetrahydropyrazolo[1,5-a]pyrimidine-3-carboxamide], it took 236 nM to reach half-maximal degradation (DC50).
As to `NC(=O)c1c(-c2ccc(Oc3ccccc3)cc2)nn2c1NCC[C@H]2C1CCN(C(=O)CCCc2cn(CCCCNC(=O)COc3cccc4c3C(=O)N(C3CCC(=O)NC3=O)C4=O)nn2)CC1` (stereo partly drawn) [Example 19, (7S)-7-(1-(4-(1-(4-(2-((2-(2,6-dioxopiperidin-3-yl)-1,3-dioxoisoindolin-4-yl)oxy)acetamido)butyl)-1H-1,2,3-triazol-4-yl)butanoyl)piperidin-4-yl)-2-(4-phenoxyphenyl)-4,5,6,7-tetrahydropyrazolo[1,5-a]pyrimidine-3-carboxamide], half-maximal degradation (DC50) was put at 6410 nM.
The compound `NC(=O)c1c(-c2ccc(Oc3ccccc3)cc2)nn2c1NCC[C@H]2C1CCN(C(=O)CCCc2cn(CCOCCOCCNc3cccc4c3C(=O)N(C3CCC(=O)NC3=O)C4=O)nn2)CC1` (stereo partly drawn) [Example 20, (7S)-7-(1-(4-(1-(2-(2-(2-((2-(2,6-dioxopiperidin-3-yl)-1,3-dioxoisoindolin-4-yl)amino)ethoxy)ethoxy)ethyl)-1H-1,2,3-triazol-4-yl)butanoyl)piperidin-4-yl)-2-(4-phenoxyphenyl)-4,5,6,7-tetrahydropyrazolo[1,5-a]pyrimidine-3-carboxamide] had a DC50 above 10000 nM.
In the case of `NC(=O)c1c(-c2ccc(Oc3ccccc3)cc2)nn2c1NCC[C@H]2C1CCN(C(=O)CCCc2cn(CCOCCOCCOCCNc3cccc4c3C(=O)N(C3CCC(=O)NC3=O)C4=O)nn2)CC1` (stereo partly drawn) [Example 21, (7S)-7-(1-(4-(1-(2-(2-(2-(2-((2-(2,6-dioxopiperidin-3-yl)-1,3-dioxoisoindolin-4-yl)amino)ethoxy)ethoxy)ethoxy)ethyl)-1H-1,2,3-triazol-4-yl)butanoyl)piperidin-4-yl)-2-(4-phenoxyphenyl)-4,5,6,7-tetrahydropyrazolo[1,5-a]pyrimidine-3-carboxamide] it was 388 nM.
Take `NC(=O)c1c(-c2ccc(Oc3ccccc3)cc2)nn2c1NCC[C@H]2C1CCN(CCOCCOCC(=O)Nc2ccc3c(c2)C(=O)N(C2CCC(=O)NC2=O)C3=O)CC1` (stereo partly drawn) [Example 24, (7S)-7-(1-(2-(2-(2-((2-(2,6-dioxopiperidin-3-yl)-1,3-dioxoisoindolin-5-yl)amino)-2-oxoethoxy)ethoxy)ethyl)piperidin-4-yl)-2-(4-phenoxyphenyl)-4,5,6,7-tetrahydropyrazolo[1,5-a]pyrimidine-3-carboxamide]: the 50% degradation concentration (DC50) stood at 34 nM. This DC50 lies about 11-fold lower than the previous one.
`NC(=O)c1c(-c2ccc(Oc3ccccc3)cc2)nn2c1NCC[C@H]2C1CCN(C(=O)COCCCCCCCCNC(=O)COc2cccc3c2CN(C2CCC(=O)NC2=O)C3=O)CC1` (stereo partly drawn) [Example 25, (7S)-7-(1-(2-((8-(2-((2-(2,6-dioxopiperidin-3-yl)-1-oxoisoindolin-4-yl)oxy)acetamido)octyl)oxy)acetyl)piperidin-4-yl)-2-(4-phenoxyphenyl)-4,5,6,7-tetrahydropyrazolo[1,5-a] pyrimidine-3-carboxamide] gave a DC50 above 10000 nM.
Compound `NC(=O)c1c(-c2ccc(Oc3ccccc3)cc2)nn2c1NCC[C@H]2C1CCN(C(=O)COCCCCCCCCNc2cccc3c2C(=O)N(C2CCC(=O)NC2=O)C3=O)CC1` (stereo partly drawn) [Example 26, (7S)-7-(1-(2-((8-((2-(2,6-dioxopiperidin-3-yl)-1,3-dioxoisoindolin-4-yl)amino)octyl)oxy)acetyl)piperidin-4-yl)-2-(4-phenoxyphenyl)-4,5,6,7-tetrahydropyrazolo[1,5-a]pyrimidine-3-carboxamide] came in with a DC50 above 10000 nM.
For the compound `NC(=O)c1c(-c2ccc(Oc3ccccc3)cc2)nn2c1NCC[C@H]2C1CCN(C(=O)COCCOCCOCCOCCNc2cccc3c2C(=O)N(C2CCC(=O)NC2=O)C3=O)CC1` (stereo partly drawn) [Example 27, (7S)-7-(1-(14-((2-(2,6-dioxopiperidin-3-yl)-1,3-dioxoisoindolin-4-yl)amino)-3,6,9, 12-tetraoxatetradecanoyl)piperidin-4-yl)-2-(4-phenoxyphenyl)-4,5,6,7-tetrahydropyrazolo[1,5-a]pyrimidine-3-carboxamide], the 50% degradation concentration (DC50) is above 10000 nM.
With `NC(=O)c1c(-c2ccc(Oc3ccccc3)cc2)nn2c1NCC[C@H]2C1CCN(C(=O)COCCOCCNC(=O)CCN2CCN(c3ccc4c(c3)C(=O)N(C3CCC(=O)NC3=O)C4=O)CC2)CC1` (stereo partly drawn) [Example 28, (7S)-7-(1-(2-(2-(2-(3-(4-(2-(2,6-dioxopiperidin-3-yl)-1,3-dioxoisoindolin-5-yl)piperazin-1-yl)propanamido)ethoxy)ethoxy)acetyl)piperidin-4-yl)-2-(4-phenoxyphenyl)-4,5,6,7-tetrahydropyrazolo[1,5-a]pyrimidine-3-carboxamide], the DC50 was found to be 1480 nM. That is a single-digit micromolar value.
